Results: patent publication US20220386606A1, “SPECIFICALLY SUBSTITUTED 3-PHENYL-5-SPIROCYCLOPENTYL-3-PYRROLIN-2-ONES AND THEIR USE AS HERBICIDES” (Bayer Aktiengesellschaft, priority 2019, published 2022)

How the values were obtained:
DIGSA [1] = assay: Post-emergence herbicidal action against DIGSA; type: in vivo, Digitaria sanguinalis; settings: 80 g/ha, visual assessment about 3 weeks after treatment vs untreated controls
Method in brief: (§1)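 Greenhouse post-emergence test; one-leaf stage (2–3 wk post-sowing), sandy loam. Spray: WP/EC in water, 600–800 l/ha, 0.2% wetting agent, onto green parts. Visual rating ~3 wk later, % vs untreated (100% = dead, 0% = like control).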

ALOMY [2] = assay: Post-emergence herbicidal action against ALOMY; type: in vivo, Alopecurus myosuroides; settings: 80 g/ha, visual assessment after about 3 weeks
Method in brief: as §1

SETVI [3] = assay: Post-emergence herbicidal action against SETVI; type: in vivo, Setaria viridis; settings: 80 g/ha, visual assessment about 3 weeks after treatment vs untreated controls
Method in brief: as §1

DIGSA [4] = assay: Pre-emergence herbicidal action against DIGSA; type: in vivo, Digitaria sanguinalis; settings: 320 g/ha, scored visually after 3 weeks vs untreated controls
Method in brief: (§2)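 Visual percent damage, rated 3 weeks after treatment against untreated plants (0% like control, 100% plants dead). Compounds, as wettable powders or emulsion concentrates, were sprayed pre-emergence onto soil covering seeds sown in sandy loam, at 600 to 800 L/ha water with 0.2% wetting agent; pots kept in greenhouse.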

ECHCG [5] = assay: Pre-emergence herbicidal action against ECHCG; type: in vivo, Echinochloa crus-galli; settings: 320 g/ha, scored visually after 3 weeks vs untreated controls
Method in brief: as §2

MATIN = assay: Pre-emergence herbicidal action against MATIN; type: in vivo; settings: 320 g/ha
From the text: (§3) Seeds of monocotyledonous and dicotyledonous weed plants and crop plants are laid out in sandy loam soil in wood-fiber pots and covered with soil. The compounds of the invention, formulated in the form of wettable powders (WP) or as emulsion concentrates (EC), are then applied to the surface of the covering soil as aqueous suspension or emulsion at a water application rate equating to 600 to 800 L/ha with addition of 0.2% wetting agent.
(§4) After the treatment, the pots are placed in a greenhouse and kept under good growth conditions for the trial plants. The damage to the test plants is scored visually after a test period of 3 weeks by comparison with untreated controls (herbicidal activity in percent (%): 100% activity=the plants have died, 0% activity=like control plants).

VIOTR = assay: Pre-emergence herbicidal action against VIOTR; type: in vivo, Viola tricolor; settings: 320 g/ha
From the text: as §3, §4

SETVI [6] = assay: Pre-emergence herbicidal action against SETVI; type: in vivo, Setaria viridis; settings: 320 g/ha, scored visually after 3 weeks vs untreated controls
Method in brief: as §2

AVEFA [7] = assay: Pre-emergence herbicidal action against AVEFA; type: in vivo, Avena fatua; settings: 320 g/ha, scored visually after 3 weeks vs untreated controls
Method in brief: as §2

LOLRI [8] = assay: Post-emergence herbicidal action against LOLRI; type: in vivo, Lolium rigidum; settings: 80 g/ha, visual assessment about 3 weeks after treatment vs untreated controls
Method in brief: as §1

ECHCG [9] = assay: Post-emergence herbicidal action against ECHCG; type: in vivo, Echinochloa crus-galli; settings: 80 g/ha, visual assessment about 3 weeks after treatment vs untreated controls
Method in brief: as §1

ALOMY [10] = assay: Pre-emergence herbicidal action against ALOMY; type: in vivo, Alopecurus myosuroides; settings: 320 g/ha, scored visually after 3 weeks vs untreated controls
Method in brief: as §2

LOLRI [11] = assay: Pre-emergence herbicidal action against LOLRI (Table 8, titled post-emergence at 320 g/ha); type: in vivo, Lolium rigidum; settings: table stands in the pre-emergence section
Method in brief: as §2

AVEFA [12] = assay: Post-emergence herbicidal action against AVEFA; type: in vivo, Avena fatua; settings: 80 g/ha, visual assessment after about 3 weeks
Method in brief: as §1

AMARE = assay: Pre-emergence herbicidal action against AMARE; type: in vivo, Amaranthus retroflexus; settings: 320 g/ha
From the text: as §3, §4

VERPE = assay: Pre-emergence herbicidal action against VERPE; type: in vivo, Veronica persica; settings: 320 g/ha
From the text: as §3, §4

SMILES	Post-emergence action against DIGSA in % (DIGSA [1]) [%]	Post-emergence action against ALOMY in % (ALOMY [2]) [%]	Post-emergence action against SETVI in % (SETVI [3]) [%]	Pre-emergence action against DIGSA in % (DIGSA [4]) [%]	Pre-emergence action against ECHCG in % (ECHCG [5]) [%]	Pre-emergence action against MATIN in % (MATIN) [%]	Pre-emergence action against VIOTR in % (VIOTR) [%]	Pre-emergence action against SETVI in % (SETVI [6]) [%]	Pre-emergence action against AVEFA in % (AVEFA [7]) [%]	Post-emergence action against LOLRI in % (LOLRI [8]) [%]	Post-emergence action against ECHCG in % (ECHCG [9]) [%]	Pre-emergence action against ALOMY in % (ALOMY [10]) [%]	Pre-emergence herbicidal action against LOLRI in % (LOLRI [11]) [%]	Post-emergence action against AVEFA in % (AVEFA [12]) [%]	Pre-emergence action against AMARE in % (AMARE) [%]	Pre-emergence action against VERPE in % (VERPE) [%]
CC#Cc1cc(C)c(C2=C(OC(=O)C(C)C)C3(CCC(COCC)C3)NC2=O)c(F)c1 (centres unmarked) [Example P-56]	100	100	100	100	100	80	100	100	80	100	100	100	100	90	80	
C#CCOCC1CCC2(C1)NC(=O)C(c1c(C)cc(C#CC)cc1OC)=C2O (centres unmarked) [Example I-77]	90	100	100	100	100	80		100	100	90	100	100	100	90	100	
C#CCOCC1CCC2(C1)NC(=O)C(c1c(C)cc(C#CC)cc1Cl)=C2OC(=O)OCC (centres unmarked) [Example P-99]	90	100	100	100	100		100	100	100	90	100	100	100	80	100	100
C=CCOCC1CCC2(C1)NC(=O)C(c1c(C)cc(C#CC)cc1Br)=C2O (centres unmarked) [Example I-67]	90	100	90	100	100	80	100	100	80	90	90	100	100			
CC#Cc1cc(F)c(C2=C(OC(=O)OCC)C3(CCC(COCCC)C3)NC2=O)c(OC)c1 (centres unmarked) [Example P-84]	90		100	100	100	80	80	100	80	80	100	100	100	80		
CC#Cc1cc(C)c(C2=C(O)C3(CCC(COCCC)C3)NC2=O)c(OC)c1 (centres unmarked) [Example I-59]	100	100	100	100	100	80	100	100		90	100	100	100	90	100	
CC#Cc1cc(C)c(C2=C(OC(=O)C(C)C)C3(CCC(COCC)C3)NC2=O)c(OC)c1 (centres unmarked) [Example P-50]	90	100	100	100	100		100	100	100	100	100	100	100	90	100	80
C#CCOCC1CCC2(C1)NC(=O)C(c1c(F)cc(C#CC)cc1OC)=C2O (centres unmarked) [Example I-75]	90	90	100	100	90	90		100	100	90	100	90	100	90	80	
CC#Cc1cc(C)c(C2=C(OC(=O)C(C)C)C3(CCC(COCC)C3)NC2=O)c(Br)c1 (centres unmarked) [Example P-37]	100	100	100	100	100		100	100	80	100	100	100	100	90	100	80
CC#Cc1cc(C)c(C2=C(OC(=O)OCC)C3(CCC(COCCOC)C3)NC2=O)c(OC)c1 (centres unmarked) [Example P-79]	90	100	100	100	100		100	100	100	90	100	100	100	90	80	90
C#CCOCC1CCC2(C1)NC(=O)C(c1c(C)cc(C#CC)cc1OC)=C2OC(=O)OCC (centres unmarked) [Example P-101]	90	100	100	100	100	80	80	100	100	100	100	100	100	80	100	
